From patent US12295959B2 (priority 2021, dated 2025)
pEC50, pIC50: −log10 of the molar value.

How the values were obtained:
5HT2A sensor = assay type: cell-based
mice = assay: Head-twitch response (HTR); assay type: in vivo
Procedure: Head twitch response (HTR) experiments. C57BL/6J Mice (9-10 weeks old) are housed following an IACUC approved protocol. The mice are habituated in the test cage for at least 30 min, injected intraperitoneally with compound (injection volume 5 ml/kg), returned to the empty test cage, and filmed for 20 minutes. Each video is scored for the number of head-twitches by a trained observer blinded to treatment condition.

rat cortical neurons = assay: Neurite outgrowth assay; assay type: cell-based; parameters: key: A: Statistically significant mean increase as a percent of DMSO control at 10 μM or less.; B: No statistically significant mean increase as a percent of DMSO control at 10 μM or less; conditions: 72 h, 10 μM or less, vs DMSO control
Description: Neurite Outgrowth Assay. Changes in the pattern of neurite outgrowth have been implicated in psychiatric and neurodegenerative disorders as well as traumatic injuries. The discovery of new compounds that can positively affect neuritogenesis are important for developing new therapeutics for neurological diseases. Measurement of neurite outgrowth of rat cortical neurons using an automated image-based assay was used to determine the neuroplastic effects of the compounds of the present invention. The neurite outgrowth assay was performed at Neurofit SAS (France) as described below.
Pregnant Wistar rats (Janvier; France) were used for the study. They were delivered 6 days before their use. Upon arrival at Neurofit animal facility, they were housed one per cage and maintained in a room with controlled temperature (21-22° C.) and a reversed light-dark cycle (12 h/12 h; lights on: 17:30-05:30; lights off: 05:30-17:30) with food and water available ad libitum.
Female Wistar rats of 17 days gestation were killed by cervical dislocation and the fetuses were removed from the uterus. Their brains were placed in ice-cold medium of Leibovitz (L15, Gibco, Fisher bioblock, France). Cortices were dissected and meninges were carefully removed. The cortical neurons were dissociated by trypsinization for 30 min at 37° C. (trypsin-EDTA, Gibco) in presence of 0.1 mg/ml DNAse I (Roche, France). The reaction was stopped by addition of Dulbecco's Modified Eagle Medium (DMEM; Gibco) with 10% of fetal bovine serum (FBS; Gibco). The suspension was triturated with a 10-ml pipette and using a needle syringe 21G and centrifuged at 350×g for 10 min at room temperature. The pellet of dissociated cells was resuspended in a medium consisting of Neurobasal (Gibco) supplemented with 2% B27 supplement (Gibco), 0.5 mM L-Glutamine (Gibco), an antibiotic-antimicotic mixture. Viable cells were counted in a Neubauer cytometer using the trypan blue exclusion test (Sigma). Cells were seeded at a density of 10000 cells per well in 96-well plate (Costar) precoated with poly-L-lysine. Test compound at different concentrations were added to the cultures. Donepezil (positive control) was tested at 250 nM.
After 72 h (3 days) of plating, cultures were fixed with paraformaldehyde in PBS (4%, Sigma) for 30 min at 4° C. Then, cells were successively permeabilized with 0.1% Triton X100 for 30 min, saturated with PBS containing 3% of BSA and were incubated 1 h with anti-beta III tubulin antibody (Sigma) at 1/10 000 in PBS containing 0.5% of BSA. Cells were washed three times with PBS containing 0.5% of BSA, and they were incubated 1 h with goat anti-mouse antibody coupled with AF488 (Invitrogen A 11001) diluted at 1/1000 in PBS containing 0.5% of BSA. Finally, nuclei were staining with DAPI 1 mg/ml at 1/1000 in PBS containing 0.5% of BSA. After rinsing with PBS, the plate was filmed and neurite networks were examined and analyzed using High-Content Screening (CellInsight, Thermo Scientific). The average number of neurites per neuron and the average total length of neurites per neuron were the main parameters analyzed. Analysis of data was performed using analysis of variance (ANOVA). The Fisher's Protected Least Significant Difference test was used for multiple comparisons. A p value≤0.05 was considered significant. The software used is StatView 5.0 from SAS Institut.

5-HT2A [1] = biological target: T1, 5-HT2A (Homo sapiens, UniProt P28223); assay: Serotonin 5-HT2A in vitro cellular IPOne agonism assay (HTRF); assay type: cell-based; parameters: host or cells: CHO-K1; conditions: CHO-K1 cells, agonist mode
T1 sequence (P28223 whole entry): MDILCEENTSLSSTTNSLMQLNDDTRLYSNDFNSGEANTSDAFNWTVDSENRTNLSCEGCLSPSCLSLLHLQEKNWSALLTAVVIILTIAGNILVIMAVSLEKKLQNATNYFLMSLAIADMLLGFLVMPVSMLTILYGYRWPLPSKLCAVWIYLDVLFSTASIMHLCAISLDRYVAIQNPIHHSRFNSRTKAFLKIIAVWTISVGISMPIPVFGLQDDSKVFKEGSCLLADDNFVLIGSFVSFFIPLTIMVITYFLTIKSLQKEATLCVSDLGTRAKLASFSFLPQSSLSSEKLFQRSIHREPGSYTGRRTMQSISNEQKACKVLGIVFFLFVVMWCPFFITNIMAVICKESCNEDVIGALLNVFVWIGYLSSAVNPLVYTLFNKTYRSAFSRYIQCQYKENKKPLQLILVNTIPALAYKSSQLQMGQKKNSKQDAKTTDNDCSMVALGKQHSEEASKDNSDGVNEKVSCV
Procedure: (§1) Serotonin 5-HT2A In Vitro Cellular IPOne Agonism Assay. The 5-HT2A IPOne HTRF assay was performed at Epics Therapeutics S.A. (Belgium, FAST-0505I) using conventional methods. Briefly, CHO-K1 cells expressing human recombinant 5-HT2A receptor grown to mid-log phase in culture media without antibiotics were detached with PBS-EDTA, centrifuged, and resuspended in medium without antibiotics buffer. 20,000 cells were distributed in a 96 well plate and incubated overnight at 37° C. with 5% CO2.
For agonist testing, the medium was removed and 20 μl of assay buffer plus 20 μl of test compound or reference agonist are added in each well. The plate was incubated for 60 min. at 37° C. with 5% CO2.
(§2) After addition of the lysis buffer containing IP1-d2 and anti-IP1 cryptate detection reagents, plates were incubated 1-hour at room temperature, and fluorescence ratios were measured according to the manufacturer specification, with the HTRF kit.

5-HT2A [2] = biological target: T1, 5-HT2A; assay: Serotonin 5-HT2A in vitro cellular IPOne antagonism assay; assay type: cell-based; parameters: host or cells: CHO-K1; conditions: CHO-K1 cells, antagonist mode, reference agonist a-Me-5HT
Procedure: as §1, with “Serotonin 5-HT2A and 5-HT2C In Vitro” for “Serotonin 5-HT2A In Vitro”, “Cellular IPOne Antagonism Assay. The” for “Cellular IPOne Agonism Assay. The”, “(Belgium, FAST-0505I) in antagonism mode using conventional” for “(Belgium, FAST-0505I) using conventional”
For antagonist testing, a reference agonist a-Me-5HT was added and fluorescence signal monitored for several minutes, followed by addition of 20 μl of assay buffer plus 20 μl of test compound or reference antagonist ketanserin, in each well. The plate was incubated for 60 min. at 37° C. with 5% CO2.
as §2

5-HT2A [3] = biological target: T1, 5-HT2A; assay: Serotonin 5-HT2A in vitro radioligand binding competition assay ([3H]-DOI); parameters: purchased Epics Therapeutics S.A. (Belgium) FAST-0505B; host or cells: membrane extracts; conditions: [3H]-DOI competition, membrane extracts
Procedure: Serotonin 5-HT2A In Vitro Radioligand Binding Competition Assay. The 5-HT2A radioligand binding competition assay was performed at Epics Therapeutics S.A. (Belgium, FAST-0505B) using conventional methods. Briefly, competition binding was performed in duplicate in the wells of a 96 well plate (Master Block, Greiner, 786201) containing binding buffer (optimized for each receptor), membrane extracts (amount of protein/well optimized for each receptor), radiotracer [^3H]-DOI (final concentration optimized for each receptor) and test compound. Nonspecific binding was determined by co-incubation with 200-fold excess of cold competitor. The samples were incubated in a final volume of 0.1 ml at a temperature and for a duration optimized for each receptor and then filtered over filter plates. Filters were washed six times with 0.5 ml of ice-cold washing buffer (optimized for each receptor) and 50 μl of Microscint 20 (Packard) was added in each well. The plates were incubated 15 min on an orbital shaker and then counted with a TopCount™ for 1 min/well.

Compound | activation of the 5HT2A sensor assay in agonist mode (5HT2A sensor) | head-twitch response (HTR) (mice) | Increase in Neurite Branching (rat cortical neurons) | Increase in Neurite Length (rat cortical neurons) | Increase in Neurite Number (rat cortical neurons) | pEC50 (5-HT2A [1]) | pIC50 (5-HT2A [2]) | pIC50 (5-HT2A [3])
CCN(CC)C(=O)[C@@H]1C=C2c3cccc4[nH]c(Br)c(c34)C[C@H]2N(C)C1 [BOL148] | do not activate | – | – | – | – | – | – | –
COc1ccc2[nH]cc(CCN(C)C)c2c1 [Compound 5-MeO-DMT, 5-MeO-DMT] | activate | robust, dose-dependent head-twitch response | – | – | – | – | – | –
CCN(CC)CCc1c[nH]c2cc(F)ccc12 [Compound 6-F-DET, 6-F-DET] | do not activate | – | – | – | – | – | – | –
COc1ccc2c(CCN(C)C)c[nH]c2c1 [Compound 6-MeO-DMT, 6-MeO-DMT] | do not activate | does not produce a HTR | – | – | – | – | – | –
CN1CCc2[nH]c3cc(Oc4ccccc4)ccc3c2CC1 [Compound 12, 3-methyl-8-phenoxy-1,2,3,4,5,6-hexahydroazepino[4,5-b]indole] | – | – | A | A | A | < 5.00 | 6.00 to 7.00 | 6.00 to 7.00
CN1CCc2c(n(C)c3cc(Oc4ccccc4)ccc23)CC1 [Compound 14, 3,6-dimethyl-8-phenoxy-1,2,3,4,5,6-hexahydroazepino[4,5-b]indole] | – | – | B | A | B | < 5.00 | 5.00 to 6.00 | 5.00 to 6.00
CN1CCc2[nH]c3cc(Oc4ccc(F)cc4)ccc3c2CC1 [Compound 16, 8-(4-fluorophenoxy)-3-methyl-1,2,3,4,5,6-hexahydroazepino[4,5-b]indole] | – | – | A | A | B | < 5.00 | 6.00 to 7.00 | 6.00 to 7.00
CN1CCc2c(n(C)c3cc(Oc4ccc(F)cc4)ccc23)CC1 [Compound 18, 8-(4-fluorophenoxy)-3,6-dimethyl-1,2,3,4,5,6-hexahydroazepino[4,5-b]indole] | – | – | A | A | A | < 5.00 | 6.00 to 7.00 | 6.00 to 7.00
Cn1c2c(c3c(OCc4ccccc4)cccc31)CCNCC2 [Compound 19, 10-(benzyloxy)-6-methyl-1,2,3,4,5,6-hexahydroazepino[4,5-b]indole] | – | – | B | B | B | 5.00 to 6.00 | 6.00 to 7.00 | 6.00 to 7.00
CN1CCc2[nH]c3cccc(Oc4ccc(F)cc4)c3c2CC1 [Compound 22, 10-(4-fluorophenoxy)-3-methyl-1,2,3,4,5,6-hexahydroazepino[4,5-b]indole] | – | – | A | A | A | < 5.00 | 7.00 to 8.00 | 7.00 to 8.00
CN1CCc2c(n(C)c3cccc(Oc4ccc(F)cc4)c23)CC1 [Compound 24, 10-(4-fluorophenoxy)-3,6-dimethyl-1,2,3,4,5,6-hexahydroazepino[4,5-b]indole] | – | – | B | A | B | < 5.00 | 7.00 to 8.00 | 7.00 to 8.00
c1ccc(COc2ccc3[nH]c4c(c3c2)CCNCC4)cc1 [Compound 25, 9-(benzyloxy)-1,2,3,4,5,6-hexahydroazepino[4,5-b]indole] | – | – | – | A | – | < 5.00 | 6.00 to 7.00 | 6.00 to 7.00
CN1CCc2[nH]c3ccc(OCc4ccccc4)cc3c2CC1 [Compound 26, 9-(benzyloxy)-3-methyl-1,2,3,4,5,6-hexahydroazepino[4,5-b]indole] | – | – | A | A | A | < 5.00 | 6.00 to 7.00 | 6.00 to 7.00
CN1CCc2[nH]c3c(OCc4ccccc4)cccc3c2CC1 [Compound 28, 7-(benzyloxy)-3-methyl-1,2,3,4,5,6-hexahydroazepino[4,5-b]indole] | – | – | A | A | A | < 5.00 | 7.00 to 8.00 | 7.00 to 8.00
CN1CCc2[nH]c3c(Br)ccc(OCc4ccccc4)c3c2CC1 [Compound 29, 10-(benzyloxy)-7-bromo-3-methyl-1,2,3,4,5,6-hexahydroazepino[4,5-b]indole] | – | – | B | A | B | 7.00 to 8.00 | 7.00 to 8.00 | 7.00 to 8.00
CN(C)CCc1c[nH]c2ccccc12 [DMT, N,N-dimethyltryptamine] | activate | – | – | – | – | – | – | –
COc1cc(CC(C)N)c(OC)cc1I (stereo not drawn) [DOI] | activate | – | – | – | – | – | – | –
O=C(c1ccc(F)cc1)C1CCN(CCn2c(=O)[nH]c3ccccc3c2=O)CC1 [Ketanserin] | do not activate | – | – | – | – | – | – | –
CNC(C)Cc1ccc2c(c1)OCO2 [L-MDMA] | do not activate | – | – | – | – | – | – | –
CCN(CC)C(=O)[C@@H]1C=C2c3cccc4[nH]cc(c34)C[C@H]2N(C)C1 [LSD] | activate | – | – | – | – | – | – | –
